In ChEMBL document CHEMBL1136502, “Novel mechanism of inhibiting beta-lactamases by sulfonylation using beta-sultams” (Bioorg Med Chem Lett, 2003):

Columns and labels:
[1] = pKa value was determined; assay type: physicochemical
Beta-lactamase = Beta-lactamase (Enterobacter cloacae, UniProt P05364); assay: Inhibitor activity against Beta-lactamase, derived from the Gram negative bacteria Enterobacter cloacae at pH 7
Sequence of Beta-lactamase (P05364 whole entry): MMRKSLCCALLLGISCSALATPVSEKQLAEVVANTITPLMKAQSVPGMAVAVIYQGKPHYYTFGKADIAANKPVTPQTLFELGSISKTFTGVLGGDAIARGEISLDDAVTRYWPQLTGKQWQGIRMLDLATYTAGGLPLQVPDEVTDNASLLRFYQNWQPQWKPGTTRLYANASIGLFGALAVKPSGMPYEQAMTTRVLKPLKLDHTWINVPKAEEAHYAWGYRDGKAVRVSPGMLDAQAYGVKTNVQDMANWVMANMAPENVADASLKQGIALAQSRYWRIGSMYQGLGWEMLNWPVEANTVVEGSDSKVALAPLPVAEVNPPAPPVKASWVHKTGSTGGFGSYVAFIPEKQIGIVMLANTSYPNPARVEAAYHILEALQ

Compound | pKa [1] | kinact/Ki (Beta-lactamase)
O=C(c1ccccc1)N1CCS1(=O)=O | 6.3 | 163 M⁻¹ s⁻¹
CC(C)C1CN(C(=O)c2ccccc2)S1(=O)=O (stereo not drawn) | – | 0.07 M⁻¹ s⁻¹
